Read-outs that look alike come from different tables or passages of the source.
How the values were obtained:
PARK7 [1] = target: T1, PARK7 (Homo sapiens, UniProt Q99497); assay: High-throughput screen of the crude compound library, PARK7 fluorescence polarization (FP) assay with FP reagent JYQ-107; format: biochemical; details: for inhibition at 1.25 µM: read-out: HTS FP assay %Inhibition (1.25 µM)
T1 sequence (Q99497 1-189): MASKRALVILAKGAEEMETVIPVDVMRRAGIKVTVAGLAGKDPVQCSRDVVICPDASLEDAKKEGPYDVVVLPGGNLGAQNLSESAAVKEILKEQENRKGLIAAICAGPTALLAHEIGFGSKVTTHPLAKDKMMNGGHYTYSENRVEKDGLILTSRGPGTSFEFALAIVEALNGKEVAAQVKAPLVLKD

PARK7 [2] = target: T1, PARK7; assay: Hit validation and pure-compound testing in the PARK7 FP assay with JYQ-107; format: biochemical; details: for inhibition at 0.25 µM: read-out: % Inhibition 0.25 µM; for inhibition at 0.5 µM: read-out: % Inhibition 0.5 µM
[3] = 1.25 µM, crude compound library
[4] = 1.25 µM, crude compound library, FP reagent JYQ-107

| Compound | inhibition at 1.25 µM (PARK7 [1]; [4]) | also measured |
| --- | --- | --- |
| N#CN1CC[C@@H](C(=O)Nc2nc3c(s2)CN(C(=O)c2cccc(S(=O)(=O)NCc4cccs4)c2)CC3)C1 [Compound 11] | – | inhibition at 1.25 µM (PARK7 [1]; [3]): 90%; inhibition at 0.25 µM (PARK7 [2]; crude compounds, 0.25 µM): 49.3%; inhibition at 0.5 µM (PARK7 [2]; crude compounds): 77.9%; inhibition at 1 µM (PARK7 [2]; crude compounds, 1 µM): 93.6% |
| N#CN1CC[C@@H](C(=O)Nc2nc3c(s2)CN(C(=O)c2cc(-n4ccnc4)ccn2)CC3)C1 [Compound 22] | – | inhibition at 1.25 µM (PARK7 [1]; [3]): 90.7%; inhibition at 0.25 µM (PARK7 [2]; crude compounds, 0.25 µM): 52.2%; inhibition at 0.5 µM (PARK7 [2]; crude compounds): 81%; inhibition at 1 µM (PARK7 [2]; crude compounds, 1 µM): 96% |
| N#CN1CC[C@@H](C(=O)Nc2nc3c(s2)CN(C(=O)c2cn(C4CCC4)nn2)CC3)C1 [Compound 30] | – | inhibition at 1.25 µM (PARK7 [1]; [3]): 89.2%; inhibition at 0.25 µM (PARK7 [2]; crude compounds, 0.25 µM): 52.3%; inhibition at 0.5 µM (PARK7 [2]; crude compounds): 75.7%; inhibition at 1 µM (PARK7 [2]; crude compounds, 1 µM): 93.6% |
| N#CN1CC[C@@H](C(=O)Nc2nc3c(s2)CN(C(=O)c2cccc(S(=O)(=O)NC4CC4)c2)CC3)C1 [Compound 59, (R)-1-Cyano-N-(5-(3-(N-cyclopropylsulfamoyl)benzoyl)-4,5,6,7-tetrahydrothiazolo[5,4-c]pyridin-2-yl)pyrrolidine-3-carboxamide] | – | inhibition at 1.25 µM (PARK7 [1]; [3]): 89.7%; inhibition at 0.25 µM (PARK7 [2]; crude compounds, 0.25 µM): 63.1%; inhibition at 0.5 µM (PARK7 [2]; crude compounds): 84.4%; inhibition at 1 µM (PARK7 [2]; crude compounds, 1 µM): 97.5%; inhibition at 0.25 µM (PARK7 [2]; pure compounds, 0.25 µM): 74.8%; inhibition at 1 µM (PARK7 [2]; pure compounds, 1 µM): 93.6% |
| N#CN1CC[C@@H](C(=O)Nc2nc3c(s2)CN(C(=O)c2ccc(NNC(=O)OCC4c5ccccc5-c5ccccc54)cc2)CC3)C1 [compound 422] | 78.9% | – |
| N#CN1CC[C@@H](C(=O)Nc2nc3c(s2)CN(C(=O)Cn2cc(C=O)c4ccccc42)CC3)C1 [compound 423] | – | inhibition at 1.25 µM (PARK7 [1]): 72.5% |
| N#CN1CC[C@@H](C(=O)Nc2nc3c(s2)CN(C(=O)c2ccc(C=O)cc2)CC3)C1 [compound 424] | 76.8% | – |
| N#CN1CC[C@@H](C(=O)Nc2nc3c(s2)CN(C(=O)c2cccc4c2-c2ccccc2C4)CC3)C1 [compound 425] | 84% | – |
| N#CN1CC[C@@H](C(=O)Nc2nc3c(s2)CN(C(=O)c2cc(C=O)ccc2O)CC3)C1 [compound 427] | 63.9% | – |
| CCCN(CCC)S(=O)(=O)c1ccc(C(=O)N2CCc3nc(NC(=O)[C@@H]4CCN(C#N)C4)sc3C2)cc1 [compound 428] | 85.1% | – |
| CN1C(=O)C[C@@H](C(=O)N2CCc3nc(NC(=O)[C@@H]4CCN(C#N)C4)sc3C2)[C@@H]1c1cccnc1 [compound 429] | 59.5% | – |
| N#CN1CC[C@@H](C(=O)Nc2nc3c(s2)CN(C(=O)CCc2ccccc2Br)CC3)C1 [compound 430] | 87.5% | – |
| CC(=O)CCCC(=O)N1CCc2nc(NC(=O)[C@@H]3CCN(C#N)C3)sc2C1 [compound 431] | 72.4% | – |
| N#CN1CC[C@@H](C(=O)Nc2nc3c(s2)CN(C(=O)c2ccccc2C=O)CC3)C1 [compound 432] | 57.9% | – |
| N#CN1CC[C@@H](C(=O)Nc2nc3c(s2)CN(C(=O)c2cccc(C=O)c2)CC3)C1 [compound 433] | 81.4% | – |
| CCCCNc1ccc(C(=O)N2CCc3nc(NC(=O)[C@@H]4CCN(C#N)C4)sc3C2)cc1 [compound 434] | 81.3% | – |
| N#CN1CC[C@@H](C(=O)Nc2nc3c(s2)CN(C(=O)CCC2CCCCC2)CC3)C1 [compound 435] | 78.3% | – |
| N#CN1CC[C@@H](C(=O)Nc2nc3c(s2)CN(C(=O)CN2C(=O)c4ccccc4C2=O)CC3)C1 [compound 436] | 72.4% | – |
| COc1cc(CC(=O)N2CCc3nc(NC(=O)[C@@H]4CCN(C#N)C4)sc3C2)ccc1O [compound 437] | 73.6% | – |
| N#CN1CC[C@@H](C(=O)Nc2nc3c(s2)CN(C(=O)CCc2ccc(O)cc2)CC3)C1 [compound 438] | 74.4% | – |
| CNc1ccc(C(=O)N2CCc3nc(NC(=O)[C@@H]4CCN(C#N)C4)sc3C2)cc1 [compound 439] | 73.3% | – |
| N#CN1CC[C@@H](C(=O)Nc2nc3c(s2)CN(C(=O)c2cc([N+](=O)[O-])ccc2Br)CC3)C1 [compound 441] | 81.4% | – |
| N#CN1CC[C@@H](C(=O)Nc2nc3c(s2)CN(C(=O)c2cnccn2)CC3)C1 [compound 468] | – | HTS FP assay %Inhibition (1.25 µM) (PARK7 [1]; [4]): 76.5%; % Inhibition (PARK7 [1]; HTS of crude compound library, sheet "SMILES+%Inh HTS"): 76.5% |
| (R)-1-Cyano-N-(5-(4-hydroxybenzoyl)-4,5,6,7-tetrahydrothiazolo[5,4-c]pyridin-2-yl)pyrrolidine-3-carboxamide [Compound 3] | – | % Inhibition 0.25 µM (PARK7 [2]; pure compounds, 0.25 µM): 58.4%; % Inhibition 1 µM (PARK7 [2]; pure compounds, 1 µM): 90.1%; potency in FP assay compared to JYQ-88 (PARK7 [2]; pure compounds, 0.25 and 1 μM): slight improvement in potency compared to JYQ-88 |

Further lines, with some results ahead:

| inhibition at 1.25 µM (PARK7 [1]; [4]) | Compound | also measured |
| --- | --- | --- |
| 51.4% | N#CN1CC[C@@H](C(=O)Nc2nc3c(s2)CN(C(=O)c2c(F)c(F)c(O)c(F)c2F)CC3)C1 [compound 442] | – |
| 72.8% | CC(=O)CCC(=O)N1CCc2nc(NC(=O)[C@@H]3CCN(C#N)C3)sc2C1 [compound 443] | – |
| 68.5% | N#CN1CC[C@@H](C(=O)Nc2nc3c(s2)CN(C(=O)c2cccc(B(O)O)c2)CC3)C1 [compound 444] | – |
| 62.7% | N#CN1CC[C@@H](C(=O)Nc2nc3c(s2)CN(C(=O)CCc2cccnc2)CC3)C1 [compound 445] | – |
| 74.4% | N#CN1CC[C@@H](C(=O)Nc2nc3c(s2)CN(C(=O)c2ccc(F)c(F)c2)CC3)C1 [compound 446] | – |
| 68.7% | CC(C)(C)OC(=O)NC1(C(=O)N2CCc3nc(NC(=O)[C@@H]4CCN(C#N)C4)sc3C2)CC1 [compound 447] | – |
| 63.9% | N#CN1CC[C@@H](C(=O)Nc2nc3c(s2)CN(C(=O)c2ccc(CNC(=O)OCC4c5ccccc5-c5ccccc54)cc2)CC3)C1 [compound 448] | – |
| 82.9% | CN(C)c1ccc(C(=O)N2CCc3nc(NC(=O)[C@@H]4CCN(C#N)C4)sc3C2)cc1 [compound 449] | – |
| 68.1% | CC(C)(C)OC(=O)N1C[C@@H](O)C[C@@H]1C(=O)N1CCc2nc(NC(=O)[C@@H]3CCN(C#N)C3)sc2C1 [compound 450] | – |
| 82.6% | N#CN1CC[C@@H](C(=O)Nc2nc3c(s2)CN(C(=O)c2ccc(N4CCCC4)cc2F)CC3)C1 [compound 451] | – |
| 84.6% | COc1ccccc1-c1cc(C(=O)N2CCc3nc(NC(=O)[C@@H]4CCN(C#N)C4)sc3C2)n[nH]1 [compound 452] | – |
| 52.8% | N#CN1CC[C@@H](C(=O)Nc2nc3c(s2)CN(C(=O)c2cc(-c4cccc(Cl)c4)no2)CC3)C1 [compound 453] | – |
| 73.8% | CC(C)(C)OC(=O)N1CC[C@H](C(=O)N2CCc3nc(NC(=O)[C@@H]4CCN(C#N)C4)sc3C2)C1 [compound 454] | – |
| 79.5% | N#CN1CC[C@@H](C(=O)Nc2nc3c(s2)CN(C(=O)c2ccc4cc5ccccc5cc4c2)CC3)C1 [compound 455] | – |
| 80.6% | N#CN1CC[C@@H](C(=O)Nc2nc3c(s2)CN(C(=O)c2cccc4cc5ccccc5cc24)CC3)C1 [compound 456] | – |
| 49.3% | N#CCC(=O)N1CCc2nc(NC(=O)[C@@H]3CCN(C#N)C3)sc2C1 [compound 457] | – |
| 67.9% | CC(=O)Oc1ccccc1C(=O)N1CCc2nc(NC(=O)[C@@H]3CCN(C#N)C3)sc2C1 [compound 458] | – |

| inhibition at 1.25 µM (PARK7 [1]; [4]) | Compound | also measured |
| --- | --- | --- |
| 72.7% | N#CN1CC[C@@H](C(=O)Nc2nc3c(s2)CN(C(=O)CCc2ccccc2)CC3)C1 [compound 459] | – |
| 6.9% | N#CN1CC[C@@H](C(=O)Nc2nc3c(s2)CN(C(=O)C(Cl)(Cl)Cl)CC3)C1 [compound 460] | – |
| 72.7% | N#CN1CC[C@@H](C(=O)Nc2nc3c(s2)CN(C(=O)CN2CCOCC2)CC3)C1 [compound 461] | – |
| 60.1% | N#CN1CC[C@@H](C(=O)Nc2nc3c(s2)CN(C(=O)C2CC(=O)NC(=O)N2)CC3)C1 (stereo partly drawn) [compound 462] | – |
| 67.3% | CN1CCN(CC(=O)N2CCc3nc(NC(=O)[C@@H]4CCN(C#N)C4)sc3C2)CC1 [compound 463] | – |
| 78.9% | N#CN1CC[C@@H](C(=O)Nc2nc3c(s2)CN(C(=O)C2CC2)CC3)C1 [compound 464] | – |
| 81.8% | N#CN1CC[C@@H](C(=O)Nc2nc3c(s2)CN(C(=O)CC2C(=O)Nc4ccccc42)CC3)C1 (stereo partly drawn) [compound 465] | – |
| 58.5% | CC(=O)C(=O)N1CCc2nc(NC(=O)[C@@H]3CCN(C#N)C3)sc2C1 [compound 466] | – |
| 67.9% | COCC(=O)N1CCc2nc(NC(=O)[C@@H]3CCN(C#N)C3)sc2C1 [compound 467] | – |
| 76% | Cc1ncc(C(=O)N2CCc3nc(NC(=O)[C@@H]4CCN(C#N)C4)sc3C2)s1 [compound 469] | – |
| 78.4% | N#CN1CC[C@@H](C(=O)Nc2nc3c(s2)CN(C(=O)c2ccc4c(c2)OCO4)CC3)C1 [compound 470] | – |
| 80% | N#CN1CC[C@@H](C(=O)Nc2nc3c(s2)CN(C(=O)c2ccc4c(c2)ncn4C2CCCCO2)CC3)C1 (stereo partly drawn) [compound 471] | – |
| 70.8% | CN1CCN(c2ccc(C(=O)N3CCc4nc(NC(=O)[C@@H]5CCN(C#N)C5)sc4C3)cc2)CC1 [compound 472] | – |
| 72.4% | N#CN1CC[C@@H](C(=O)Nc2nc3c(s2)CN(C(=O)c2ccc(N4CCOCC4)cc2)CC3)C1 [compound 473] | – |
| 72.5% | CN1CCC(C(=O)N2CCc3nc(NC(=O)[C@@H]4CCN(C#N)C4)sc3C2)CC1 [compound 474] | – |
| 68.5% | CC(=O)N1CCC(C(=O)N2CCc3nc(NC(=O)[C@@H]4CCN(C#N)C4)sc3C2)CC1 [compound 475] | – |
| 70.3% | N#CN1CC[C@@H](C(=O)Nc2nc3c(s2)CN(C(=O)C2CCN(c4ncccn4)CC2)CC3)C1 [compound 476] | – |
